US20240108625A1, “CDK4/6 INHIBITORS AS A TREATMENT FOR CLONAL HEMATOPOIESIS” (Washington University, priority 2022, published 2024)
“Also recorded” adds a separate entry of the source.

System: HSPCs bearing CH mutations
Test: Genomic analysis of CH clone expansion (change in VAF) in blood of SCLC patients randomized to carboplatin/etoposide with trilaciclib or placebo
Assay type: in vivo, human
Experimental: To evaluate the effect of trilaciclib on the expansion of CH clones in patients receiving chemotherapy, the following experiments were conducted. Blood samples obtained from a randomized, placebo-controlled trial of trilaciclib in SCLC patients receiving fist-line carboplatin and etoposide chemotherapy were sequenced pre- and post-treatment.
Blood samples were obtained from a clinical trial of SCLC patients receiving first-line carboplatin/etoposide combination chemotherapy randomized to concurrently receive the CDK4/6 inhibitor trilaciclib or placebo (FIG. 1). We performed targeted mutational analysis of genomic DNA from peripheral blood before and after five cycles of carboplatin/etoposide (˜5 months) in 59 individuals, 32 of whom received concurrent trilaciclib with each cycle of chemotherapy (FIG. 1, top row) and 27 who received placebo (FIG. 1, middle row). As a comparator group, sequential samples were obtained from 178 individuals from another longitudinal study (FIG. 1, bottom row) selected as cancer-free and matched in age and length of follow-up to the participants in the SCLC clinical trial. All samples were analyzed as described below to measure how the number of HSPCs bearing CH mutations (reflected by the variant allele frequency [VAF]) changed over time in individuals randomized to receive trilaciclib compared to placebo and to untreated healthy adults.
A custom-targeted CH panel was developed using VariantPlex (ArcherDX), an amplicon sequencing method that leverages bi-directional primers and molecular barcodes (MBCs) to enable reliable detection of extremely low VAF variants. The CH panel included exonic regions of the nine CH genes most commonly mutated in solid tumor patients (DNMT3A, TET2, ASXL1, PPM1D, TP53, CHEK2, JAK2, SRSF2, and SF3B1).
In brief, following DNA fragmentation, ligation with a universal MBC adapter was performed, tagging each DNA molecule with a unique molecular index (UMI) and allowing for unidirectional amplification of the sample using gene-specific primers. The resulting libraries were sequenced using a NovaSeq 6000 instrument. The average unique coverage per sample was 20,746×. Using tumor-normal dilution series from six AML patients, we developed a custom CH variant calling pipeline integrating three variant callers (Mutect2, Vardict, LoFreq) with post-calling filtering to remove germ line variants and artifacts. A critical feature of this pipeline is the empiric estimation of variant-specific error rates using a technical panel of normals consisting of 30 blood samples from children18.
The distribution of mutations within genes was characterized by notable enrichments for DDR genes (PPM1D, TP53, CHEK2) relative to DTA genes. For each CH mutation, the change in VAF between the first and second time points was calculated. […]

SMILES: CN1CCN(c2ccc(Nc3ncc4cc5n(c4n3)C3(CCCCC3)CNC5=O)nc2)CC1 [trilaciclib]
- growth suppression of CH clones by gene: TET2 (SCLC patients, carboplatin/etoposide, FIG. 5): largest impact
- expansion of CH mutations in the DDR pathway (TP53, CHEK2, PPM1D) following chemotherapy (change in VAF) (SCLC patients, concurrent with five cycles of carboplatin/etoposide (~5 months), relative to placebo group): reduced expansion following chemotherapy; also recorded: lower expansion with chemotherapy
- growth of CH clones bearing mutations in epigenetic modifiers DTA (DNMT3A, TET2, ASXL1) (SCLC patients, concurrent with five cycles of carboplatin/etoposide (~5 months), vs placebo): suppressed the growth of CH clones
- carboplatin-related clonal hematopoiesis (DDR and DTA) (carboplatin chemotherapy): inhibited carboplatin-related clonal hematopoiesis; also recorded: protects against both DDR and DTA clonal hematopoiesis
